Source: patent US20210300924A1, “5-[6-[[3-(4,5,6,7-TETRAHYDROPYRAZOLO[4,3-C]PYRIDIN-1-YL)AZETIDIN-1-YL]METHYL]MORPHOLIN-4-YL]QUINOLINE-8-CARBONITRILE DERIVATIVES AND SIMILAR COMPOUNDS AS TLR7-9 ANTAGONISTS FOR TREATING SYSTEMIC LUPUS ERYTHEMATOSUS” (Hoffmann-La Roche Inc., priority 2018, published 2021)
Marks after values point to notes of the source that are not given here.

Test: Human microsome stability assay
Format: in vitro ADME
Details: 1 μM test compound, 0.5 mg/mL liver microsomal protein, 37° C., up to 30 minutes; 6.2 = detection limit
Procedure: Human Microsome Stability Assay
The human microsomal stability assay is used for early assessment of metabolic stability of a test compound in human liver microsomes.
Human liver microsomes (Cat. NO.: 452117, Corning, USA; Cat. NO.:H2610, Xenotech, USA) were preincubated with test compound for 10 minutes at 37° C. in 100 mM potassium phosphate buffer, pH 7.4. The reactions were initiated by adding NADPH regenerating system. The final incubation mixtures contained 1 μM test compound, 0.5 mg/mL liver microsomal protein, 1 mM MgCl2, 1 mM NADP, 1 unit/mL isocitric dehydrogenase and 6 mM isocitric acid in 100 mM potassium phosphate buffer, pH 7.4. After incubation times of 0, 3, 6, 9, 15 and 30 minutes at 37° C., 300 μL of cold acetonitrile (including internal standard) was added to 100 μL incubation mixture to terminate the reaction. Following precipitation and centrifugation, the amount of compound remaining in the samples were determined by LC-MS/MS. Controls of no NADPH regenerating system at zero and 30 minutes were also prepared and analyzed.

Clearance of Human microsome | SMILES
6.2 mL/min/kg | C[C@@H]1Cc2cnn(C3CN(C[C@H]4CN(c5ccc(C#N)c6ncccc56)C[C@@H](C)O4)C3)c2CN1 (single isomer, unassigned) [Example 28]
6.6 mL/min/kg | C[C@@H]1CN(c2ccc(C#N)c3ncccc23)C[C@H](CN2CC(n3cc4c(n3)CN[C@@H](C)C4)C2)O1 (single isomer, unassigned) [Example 29]
6.2 mL/min/kg | C[C@@H]1Cc2cn(C3CN(C[C@H]4CN(c5ccc(C#N)c6ncccc56)C[C@@H](C)O4)C3)nc2CN1 (single isomer, unassigned) [Example 30]
6.4 mL/min/kg | C[C@@H]1CN(c2ccc(C#N)c3ncccc23)C[C@H](CN2CC(n3cc4c(n3)[C@H](C)NCC4)C2)O1 (single isomer, unassigned) [Example 34]
6.2* mL/min/kg | C[C@@H]1CN(c2ccc(C#N)c3ncccc23)C[C@H](CN2CC(n3ncc4c3CCNC4)C2)O1 [Example 1, 5-[(2R,6S)-2-methyl-6-[[3-(4,5,6,7-tetrahydropyrazolo[4,3-c]pyridin-1-yl)azetidin-1-yl]methyl]morpholin-4-yl]quinoline-8-carbonitrile]
6.2 mL/min/kg | C[C@@H]1CN(c2ccc(C#N)c3ncccc23)C[C@H](CN2CC(n3cc4c(n3)CCNC4)C2)O1 [Example 2, 5-[(2R,6S)-2-methyl-6-[[3-(4,5,6,7-tetrahydropyrazolo[4,3-c]pyridin-2-yl)azetidin-1-yl]methyl]morpholin-4-yl]quinoline-8-carbonitrile]
6.2 mL/min/kg | C[C@@H]1CN(c2ccc(C#N)c3ncccc23)C[C@H](CN2CC(n3cc4c(n3)CNCC4)C2)O1 [Example 4, 5-[(2R,6S)-2-methyl-6-[[3-(4,5,6,7-tetrahydropyrazolo[3,4-c]pyridin-2-yl)azetidin-1-yl]methyl]morpholin-4-yl]quinoline-8-carbonitrile]
6.2 mL/min/kg | C[C@@H]1CN(c2ccc(C#N)c3ncccc23)C[C@H](CN2CC(n3cc4c(n3)CN(C)CC4)C2)O1 [Example 5, 5-[(2R,6S)-2-methyl-6-[[3-(6-methyl-5,7-dihydro-4H-pyrazolo[3,4-c]pyridin-2-yl)azetidin-1-yl]methyl]morpholin-4-yl]quinoline-8-carbonitrile]
7.2 mL/min/kg | C[C@@H]1Cc2c(cnn2C2CN(C[C@H]3CN(c4ccc(C#N)c5ncccc45)C[C@@H](C)O3)C2)CN1 [Example 16, 5-[(2R,6S)-2-methyl-6-[[3-[(6R)-6-methyl-4,5,6,7-tetrahydropyrazolo[4,3-c]pyridin-1-yl]azetidin-1-yl]methyl]morpholin-4-yl]quinoline-8-carbonitrile]
6.2 mL/min/kg | C[C@@H]1Cc2nn(C3CN(C[C@H]4CN(c5ccc(C#N)c6ncccc56)C[C@@H](C)O4)C3)cc2CN1 [Example 17, 5-[(2R,6S)-2-methyl-6-[[3-[(6R)-6-methyl-4,5,6,7-tetrahydropyrazolo[4,3-c]pyridin-2-yl]azetidin-1-yl]methyl]morpholin-4-yl]quinoline-8-carbonitrile]
7.0 mL/min/kg | C[C@@H]1CN(c2ccc(C#N)c3ncccc23)C[C@H](CN2CC(n3ncc4c3C[C@H](C)NC4)C2)O1 [Example 18, 5-[(2R,6S)-2-methyl-6-[[3-[(6S)-6-methyl-4,5,6,7-tetrahydropyrazolo[4,3-c]pyridin-1-yl]azetidin-1-yl]methyl]morpholin-4-yl]quinoline-8-carbonitrile]
6.2 mL/min/kg | C[C@@H]1CN(c2ccc(C#N)c3ncccc23)C[C@H](CN2CC(n3cc4c(n3)C[C@H](C)NC4)C2)O1 [Example 19, 5-[(2R,6S)-2-methyl-6-[[3-[(6S)-6-methyl-4,5,6,7-tetrahydropyrazolo[4,3-c]pyridin-2-yl]azetidin-1-yl]methyl]morpholin-4-yl]quinoline-8-carbonitrile]
6.2 mL/min/kg | C[C@@H]1CN(c2ccc(C#N)c3ncccc23)C[C@H](CN2CC(n3ncc4c3CCN[C@@H]4C)C2)O1 [Example 20, 5-[(2R,6S)-2-methyl-6-[[3-[(4R)-4-methyl-4,5,6,7-tetrahydropyrazolo[4,3-c]pyridin-1-yl]azetidin-1-yl]methyl]morpholin-4-yl]quinoline-8-carbonitrile]
6.2 mL/min/kg | C[C@@H]1CN(c2ccc(C#N)c3ncccc23)C[C@H](CN2CC(n3cc4c(n3)CCN[C@@H]4C)C2)O1 [Example 21, 5-[(2R,6S)-2-methyl-6-[[3-[(4R)-4-methyl-4,5,6,7-tetrahydropyrazolo[4,3-c]pyridin-2-yl]azetidin-1-yl]methyl]morpholin-4-yl]quinoline-8-carbonitrile]
6.2 mL/min/kg | C[C@@H]1CN(c2ccc(C#N)c3ncccc23)C[C@H](CN2CC(n3ncc4c3CCN[C@H]4C)C2)O1 [Example 22, 5-[(2R,6S)-2-methyl-6-[[3-[(4S)-4-methyl-4,5,6,7-tetrahydropyrazolo[4,3-c]pyridin-1-yl]azetidin-1-yl]methyl]morpholin-4-yl]quinoline-8-carbonitrile]
6.2 mL/min/kg | C[C@@H]1CN(c2ccc(C#N)c3ncccc23)C[C@H](CN2CC(n3cc4c(n3)CCN[C@H]4C)C2)O1 [Example 23, 5-[(2R,6S)-2-methyl-6-[[3-[(4S)-4-methyl-4,5,6,7-tetrahydropyrazolo[4,3-c]pyridin-2-yl]azetidin-1-yl]methyl]morpholin-4-yl]quinoline-8-carbonitrile]
7.7 mL/min/kg | C[C@@H]1CN(c2ccc(C#N)c3ncccc23)C[C@H](CN2CCC(n3ncc4c3CCNC4)CC2)O1 [Example 35, 5-[(2R,6S)-2-methyl-6-[[4-(4,5,6,7-tetrahydropyrazolo[4,3-c]pyridin-1-yl)-1-piperidyl]methyl]morpholin-4-yl]quinoline-8-carbonitrile]
6.2 mL/min/kg | C[C@@H]1CN(c2ccc(C#N)c3ncccc23)C[C@H](CN2CCC(n3cc4c(n3)CCNC4)CC2)O1 [Example 36, 5-[(2R,6S)-2-methyl-6-[[4-(4,5,6,7-tetrahydropyrazolo[4,3-c]pyridin-2-yl)-1-piperidyl]methyl]morpholin-4-yl]quinoline-8-carbonitrile]
7.1 mL/min/kg | Cc1nn(C2CN(C[C@H]3CN(c4ccc(C#N)c5ncccc45)C[C@@H](C)O3)C2)c2c1CCNC2 [Example 42, 5-[(2R,6S)-2-methyl-6-[[3-(3-methyl-4,5,6,7-tetrahydropyrazolo[3,4-c]pyridin-1-yl)azetidin-1-yl]methyl]morpholin-4-yl]quinoline-8-carbonitrile]
6.5 mL/min/kg | Cc1c2c(nn1C1CN(C[C@H]3CN(c4ccc(C#N)c5ncccc45)C[C@@H](C)O3)C1)CNCC2 [Example 43, 5-[(2R,6S)-2-methyl-6-[[3-(3-methyl-4,5,6,7-tetrahydropyrazolo[3,4-c]pyridin-2-yl)azetidin-1-yl]methyl]morpholin-4-yl]quinoline-8-carbonitrile]

SMILES | Clearance of Human microsome
C[C@@H]1CN(c2ccc(C#N)c3ncccc23)C[C@H](CN2CC(n3cc4c(n3)CNC4)C2)O1 [Example 11, 5-[(2S,6R)-2-[[3-(5,6-dihydro-4H-pyrrolo[3,4-c]pyrazol-2-yl)azetidin-1-yl]methyl]-6-methyl-morpholin-4-yl]quinoline-8-carbonitrile] | 6.2 mL/min/kg
